How the values were obtained:
α-glucosidase = target: T1, α-glucosidase (Saccharomyces cerevisiae, UniProt P53341); experiment: Inhibition kinetic analysis (Lineweaver-Burk) on α-glucosidase; assay type: biochemical
T1 construct: purchased Sigma-Aldrich Co
Method: (§1) The reactions of a series of compounds with substrates pNαPG and G3-CNP were tested using the Lineweaver–Burk expression in Equation (1) to calculate the maximum velocity (Vmax) and Michaelis–Menten constant (Km) values. (1) 1/v=Km/Vmax1/[S]+1/Vmax, where Vmax and Km are the maximum velocity of the enzyme and the Michaelis–Menten constant without inhibitor, respectively. [S] is the concentrations of the substrate and inhibitor.

α-amylase [1] = target: T2, α-amylase (Sus scrofa, UniProt P00690); experiment: Fluorescence quenching experiment with α-amylase (Stern-Volmer, double logarithmic, Van 't Hoff); assay type: binding, porcine; conditions: for Kd: Ka (binding constant) α-amylase
T2 construct: α-amylase (EC 232-565-6, powder, ≥5 units/mg solid) isolated from porcine pancreas; purchased Sigma-Aldrich Co; host or cells: porcine pancreas
T2 sequence (P00690 16-511): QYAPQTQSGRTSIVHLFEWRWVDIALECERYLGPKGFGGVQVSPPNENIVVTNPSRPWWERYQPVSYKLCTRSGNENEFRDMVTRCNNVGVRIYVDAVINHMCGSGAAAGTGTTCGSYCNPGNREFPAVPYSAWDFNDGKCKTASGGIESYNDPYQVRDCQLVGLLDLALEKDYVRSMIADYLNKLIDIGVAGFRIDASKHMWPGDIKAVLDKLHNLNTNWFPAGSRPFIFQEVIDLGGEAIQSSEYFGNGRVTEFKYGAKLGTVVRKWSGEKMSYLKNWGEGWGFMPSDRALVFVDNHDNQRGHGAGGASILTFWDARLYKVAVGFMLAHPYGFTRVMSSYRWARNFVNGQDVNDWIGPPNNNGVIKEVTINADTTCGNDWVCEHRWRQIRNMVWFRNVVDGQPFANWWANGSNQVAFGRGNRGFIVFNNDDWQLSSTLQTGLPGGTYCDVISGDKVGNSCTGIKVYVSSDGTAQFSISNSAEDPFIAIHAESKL
Description: Based on the previously described techniques, the fluorescence quenching experiment was somewhat modified. […] The 5.0 nm excitation and emission slit widths were predetermined.
The drop in fluorescence intensity brought on by the interaction of the quencher and the fluorescence group is what causes dynamic quenching. When the collision between the quencher and the fluorescence group intensifies as the temperature rises, the quenching constant rises. The quenching mechanism of the enzyme was further studied using the Stern–Volmer equation:(2) F0/F=1+Kqτ0Q=1+Ksv[Q], where Kq is the bimolecular quenching constant, F0 represents the fluorescence intensity of starch-digesting enzymes in the absence of inhibitors, F represents the fluorescence intensity of starch-digesting enzymes in the presence of inhibitors, and τ0 is the lifetime of the fluorophore in protein (about 10^−8 s).
By calculating the thermodynamic parameters of the quenching process, the binding affinity and the main force of the reaction process were evaluated. […] The thermodynamic parameters ΔH, ΔS, and ΔG represent enthalpy change, entropy change, and free energy change, respectively. […] The interaction forces in the reaction process can be roughly divided into four types: hydrophobic interaction, hydrogen bonding, electrostatic interaction, and van der Waals interaction.

α-amylase [2] = target: T2, α-amylase; experiment: Inhibition kinetic analysis (Lineweaver-Burk) on α-amylase; assay type: biochemical, porcine; design: Vmax α-amylase: unit not given beside the values
Method: as §1

T1 sequence (P53341 whole entry): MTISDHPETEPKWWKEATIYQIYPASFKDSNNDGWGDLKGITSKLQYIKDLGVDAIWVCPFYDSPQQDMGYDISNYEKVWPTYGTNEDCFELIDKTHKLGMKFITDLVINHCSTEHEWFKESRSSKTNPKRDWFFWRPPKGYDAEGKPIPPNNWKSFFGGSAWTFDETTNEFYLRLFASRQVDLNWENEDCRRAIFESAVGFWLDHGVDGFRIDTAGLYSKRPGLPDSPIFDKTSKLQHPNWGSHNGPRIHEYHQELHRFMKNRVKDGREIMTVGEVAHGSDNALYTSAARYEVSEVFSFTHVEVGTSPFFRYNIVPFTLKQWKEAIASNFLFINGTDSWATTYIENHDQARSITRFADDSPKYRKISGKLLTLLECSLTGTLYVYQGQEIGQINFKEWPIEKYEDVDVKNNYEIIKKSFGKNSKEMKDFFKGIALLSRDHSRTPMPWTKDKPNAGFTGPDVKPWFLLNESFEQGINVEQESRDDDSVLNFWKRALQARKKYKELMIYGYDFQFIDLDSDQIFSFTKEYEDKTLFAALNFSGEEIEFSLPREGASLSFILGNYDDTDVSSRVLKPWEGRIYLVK

In the case of `O=c1c(O)c(-c2ccc(O)c(O)c2)oc2cc(O[C@@H]3O[C@H](CO)[C@@H](O)[C@H](O)[C@H]3O)cc(O)c12` [Quercimeritrin], the “inhibition mode on α-glucosidase” value (α-glucosidase; Lineweaver-Burk diagram) is reported as “competitive inhibition”, the “Vmax α-glucosidase” value (α-glucosidase; [I] 15.6 μM) is reported as 0.2151 and the “Vmax α-glucosidase” value (α-glucosidase; [I] 31.3 μM) is reported as 0.2028. The “Vmax α-glucosidase” value (α-glucosidase; [I] 62.5 μM) was 0.2000, the “Vmax α-glucosidase” value (α-glucosidase; [I] 125 μM) was 0.1916 and the “Vmax α-glucosidase” value (α-glucosidase; [I] 250 μM) was 0.1890. The “Vmax α-glucosidase” value (α-glucosidase; [I] 500 μM) was 0.1761, the “fluorescence quenching mechanism, α-amylase” value (α-amylase [1]) was “static quenching” and the Kd (α-amylase [1]; T 300.15 K) was 15.2 µM. The Kd (α-amylase [1]; T 305.15 K) was 28.6 µM, the Kd (α-amylase [1]; T 310.15 K) was 38.5 µM and the “Ksv (quenching constant) α-amylase” value (α-amylase [1]; T 300.15 K) was 0.13 ±0.03 10^5 /M. The “n (number of binding sites) α-amylase” value (α-amylase [1]; T 300.15 K) was 1.20, the “Ksv (quenching constant) α-amylase” value (α-amylase [1]; T 305.15 K) was 0.15 ±0.02 10^5 /M and the “n (number of binding sites) α-amylase” value (α-amylase [1]; T 305.15 K) was 1.10. The “Ka (binding constant) α-amylase” value (α-amylase [1]; T 310.15 K) was 0.26 ± 0.01 10^5 /M, the “Ksv (quenching constant) α-amylase” value (α-amylase [1]; T 310.15 K) was 0.18 ±0.04 10^5 /M and the “n (number of binding sites) α-amylase” value (α-amylase [1]; T 310.15 K) was 1.04. For the same compound, the “ΔH α-amylase” value (α-amylase [1]; Van 't Hoff, 300.15-310.15 K) was -3.37 ± 0.93 kcal/mol, the “ΔS α-amylase” value (α-amylase [1]; Van 't Hoff, 300.15-310.15 K) was -153.31 ±34.89 J/mol/K and the “n (number of binding sites) α-amylase” value (α-amylase [1]; text summary over temperatures) was ~1. For the same compound, the “inhibition mode on α-amylase” value (α-amylase [2]; Lineweaver-Burk diagram) was “competitive inhibition”, the “Vmax α-amylase” value (α-amylase [2]; [I] 15.6 μM) was 0.0521 and the “Vmax α-amylase” value (α-amylase [2]; [I] 31.3 μM) was 0.0532. For the same compound, the “Vmax α-amylase” value (α-amylase [2]; [I] 62.5 μM) was 0.0522, the “Vmax α-amylase” value (α-amylase [2]; [I] 125 μM) was 0.0526 and the “Vmax α-amylase” value (α-amylase [2]; [I] 250 μM) was 0.0503. The “Vmax α-amylase” value (α-amylase [2]; [I] 500 μM) was 0.0508.
